Laboratory results: US4758555A, “Method for treating convulsions and epilepsy with organic copper compounds” (priority 1986, dated 1988)
“Also recorded” adds a separate entry of the source.

Columns and labels:
[1] = 50, 100 and 300 mg/kg at 0.75, 1.5 and 3 hours post subcutaneous injection at a site different from Metrazol; cited from earlier work
[2] = known from literature; cited from earlier work
[3] = Maximal Electroshock Seizure Test; type: in vivo, male Carworth Farms #1 mice or Sprague-Dawley rats; conditions: for Anticonvulsant activity, Maximal Electroshock: Table VI; for Lowest effective dose, MES (Phase I): Table X; for Anticonvulsant activity, Maximal Electroshock (Phase I): Table IV; for Lowest active dose, MES (Phase I): Table V
[4] = Subcutaneous Pentylenetetrazol (Metrazol) Seizure Threshold Test; type: in vivo, male Carworth Farms #1 mice or Sprague-Dawley rats; conditions: for Anticonvulsant activity, Metrazol: Table VI; for Protection against Metrazol-induced seizures (in words): running text; for Lowest effective dose, Metrazol (Phase I): Table X; for Lowest active dose, Metrazol (Phase I): Table V
[5] = Anticonvulsant activity, both or unspecified seizure models; type: in vivo, male Carworth Farms #1 mice or Sprague-Dawley rats; conditions: for Anticonvulsant activity (in words): running text
[6] = Rotating rod neurotoxicity; conditions: dose and time given in the source
[7] = Lethality / acute toxicity (LD50 in 24 hours); conditions: route, dose and time given in the source
Description: Test compounds were either dissolved in 0.9% saline, or suspended in either 30% polyethylene glycol 400 in 0.9% saline or 0.2% suspending agent like polyoxyethylene glycol or Tween 80 in 0.9% saline prior to injection into male Carworth Farms #1 mice or Sprague-Dawley rats.
In Phase I identification of anticonvulsant activity, test compounds were given intraperitoneally (IP) at 30, 100, 300 and, in some cases, 600 milligrams per kilogram (mg/kg) of body weight and protection against Maximal Electroshock and/or Metrazol-induced seizures was determined 30 minutes, 4 hours, or later. […] Subsequently the routine protocol was modified and certain of the test compounds (see Tables, infra) re-evaluated following subcutaneous (SC) injection at periods of up to 8 hours post injection.
All statistics were obtained by probit analyses.

[Cl][Cu][Cl] [copper chloride]
Anticonvulsant activity reported previously (in words) [1]: no anticonvulsant activity

O=C(O)c1ccccc1O [salicylate]
Convulsions / CNS toxicity at high doses [2]: cause convulsions at high doses

Copper acetate [Cu(II)2 (acetate)4]
Anticonvulsant activity, Maximal Electroshock ([3]; IP): I
Anticonvulsant activity, Maximal Electroshock ([3]; SC, same injection site used for injection of Metrazol): I
Anticonvulsant activity, Maximal Electroshock ([3]; intragastric): I
Anticonvulsant activity, Metrazol ([4]; SC at site different from injection of Metrazol): I
Anticonvulsant activity, Metrazol ([4]; intragastric): I
Lowest dose with activity against Metrazol-induced seizures ([4]; intraperitoneal (copper acetate: site different from Metrazol)): 5 mg/kg
Protection against Metrazol-induced seizures (in words) [4]: effective in inhibiting Metrazol-induced seizures
Anticonvulsant activity (in words) [5]: active when injected at the same site as the site of Metrazol injection; also recorded: lack of anticonvulsant activity
Anticonvulsant activity (in words) ([5]; listed as copper acetate): inactive when administered orally
Anticonvulsant activity reported previously (in words) [1]: no anticonvulsant activity

Cu(II)2 (phenylacetate)4
Protection against Metrazol-induced seizures (in words) [4]: effective in protecting against Metrazol-induced seizures
Rotating rod toxicity (in words) [6]: Rotating rod toxicity at 300 mg/kg

Cu(II)2 (valproate)4
Lowest effective dose, MES (Phase I) ([3]; IP, challenge time 30 min): I
Lowest effective dose, MES (Phase I) ([3]; IP, challenge time 4 hrs): I
Lowest effective dose, MES (Phase I) ([3]; SC, challenge time 30 min): I
Lowest effective dose, MES (Phase I) ([3]; SC, challenge time 4 hrs): I
Protection against Maximal Electroshock-induced seizures (in words) ([3]; running text): ineffective against Maximal Electroshock seizures
Lowest effective dose, Metrazol (Phase I) ([4]; IP, challenge time 30 min): 100 milligrams per kilogram of bod
Lowest effective dose, Metrazol (Phase I) ([4]; IP, challenge time 4 hrs): I
Lowest effective dose, Metrazol (Phase I) ([4]; SC, challenge time 30 min): I
Lowest effective dose, Metrazol (Phase I) ([4]; SC, challenge time 4 hrs): 600 milligrams per kilogram of bod
Protection against Metrazol-induced seizures (in words) [4]: effective in protecting against Metrazol-induced seizures; also recorded: some inhibitory activity against Metrazol-induced seizures
Onset and duration of anticonvulsant action (in words) [5]: rapid onset and short duration of activity following intraperitoneal administration; also recorded: prolonged onset of activity at a higher dose following subcutaneous administration

Cu(II) Salicylidene-L-valinate
Anticonvulsant activity, Maximal Electroshock (Phase I) ([3]; IP): I
Anticonvulsant activity, Maximal Electroshock (Phase I) ([3]; SC): I
Lethality (in words) [7]: Lethal at higher doses
Lethality (in words) ([7]; listed as salicylidene-L-valinate complex): caused lethality at higher doses

Cu(II)Carbamazepine(H2 O)2
Lowest effective dose, MES (Phase I) ([3]; IP, challenge time 30 min): 10 milligrams per kilogram of bod
Lowest effective dose, MES (Phase I) ([3]; IP, challenge time 4 hrs): 100 milligrams per kilogram of bod
Lowest effective dose, MES (Phase I) ([3]; SC, challenge time 30 min): 30 milligrams per kilogram of bod
Lowest effective dose, MES (Phase I) ([3]; SC, challenge time 4 hrs): 100 milligrams per kilogram of bod
Lowest effective dose, Metrazol (Phase I) ([4]; IP, challenge time 30 min): 30 milligrams per kilogram of bod
Lowest effective dose, Metrazol (Phase I) ([4]; IP, challenge time 4 hrs): I
Lowest effective dose, Metrazol (Phase I) ([4]; SC, challenge time 30 min): 300 milligrams per kilogram of bod
Lowest effective dose, Metrazol (Phase I) ([4]; SC, challenge time 4 hrs): 300 milligrams per kilogram of bod
Protection against Metrazol-induced seizures (in words) [4]: did not potentiate Metrazol seizures
Anticonvulsant activity (in words) [5]: effective anticonvulsant

Cu(II)Pyridoxylidene-L-phenylalaninate(H2 O)2
Lowest active dose, MES (Phase I) ([3]; IP, challenge time 30 min): I
Lowest active dose, MES (Phase I) ([3]; IP, challenge time 4 hrs): I
Lowest active dose, Metrazol (Phase I) ([4]; IP, challenge time 30 min): I
Lowest active dose, Metrazol (Phase I) ([4]; IP, challenge time 4 hrs): I
Anticonvulsant activity (in words) [5]: no activity

Cu(II)Pyridoxylidene-L-valinate(H2 O)
Lowest active dose, MES (Phase I) ([3]; IP, challenge time 30 min): I
Lowest active dose, MES (Phase I) ([3]; IP, challenge time 4 hrs): I
Lowest active dose, Metrazol (Phase I) ([4]; IP, challenge time 30 min): I
Lowest active dose, Metrazol (Phase I) ([4]; IP, challenge time 4 hrs): I
Anticonvulsant activity (in words) [5]: no activity

Cu(II)oxazepam
Lowest effective dose, MES (Phase I) ([3]; IP, challenge time 30 min): 10 milligrams per kilogram of bod
Lowest effective dose, MES (Phase I) ([3]; IP, challenge time 4 hrs): I
Lowest effective dose, Metrazol (Phase I) ([4]; IP, challenge time 30 min): 1 milligrams per kilogram of bod
Lowest effective dose, Metrazol (Phase I) ([4]; IP, challenge time 4 hrs): 10 milligrams per kilogram of bod
Onset and duration of anticonvulsant action (in words) [5]: more prolonged in its action against Metrazol induced seizures
Anticonvulsant activity (in words) [5]: protected against both types of seizure

Cu(II)α-methyl-α-phenylsuccinimide(H2 O)0.75
Lowest effective dose, MES (Phase I) ([3]; IP, challenge time 30 min): 100 milligrams per kilogram of bod
Lowest effective dose, MES (Phase I) ([3]; IP, challenge time 4 hrs): I
Lowest effective dose, MES (Phase I) ([3]; SC, challenge time 30 min): 30 milligrams per kilogram of bod
Lowest effective dose, MES (Phase I) ([3]; SC, challenge time 4 hrs): 100 milligrams per kilogram of bod
Lowest effective dose, Metrazol (Phase I) ([4]; IP, challenge time 30 min): 100 milligrams per kilogram of bod
Lowest effective dose, Metrazol (Phase I) ([4]; IP, challenge time 4 hrs): 100 milligrams per kilogram of bod
Lowest effective dose, Metrazol (Phase I) ([4]; SC, challenge time 30 min): 30 milligrams per kilogram of bod
Lowest effective dose, Metrazol (Phase I) ([4]; SC, challenge time 4 hrs): 600 milligrams per kilogram of bod
Anticonvulsant activity (in words) [5]: effective in preventing both types of seizure with rapid onsets of action and prolonged durations of action following subcutaneous and intraperitoneal administration
